Results reported in patent US20110076339A1, “Colon Cleansing Method and Kit” (Kingston General Hospital, priority 2008, published 2011).

Assay: Patient diary of bowel movements after laxative use
Type: in vivo, human
Source text: In patient tolerance studies described herein, treatment groups received an osmotic purgative on the evening before colonoscopy in split doses. Comparisons were made between the results of these osmotic purgatives. Also, a comparison was made between patients treated with osmotic purgative alone, and patients treated initially with stimulant laxative followed by osmotic purgative. Table III provides a summary of data gathered from diaries that were kept by 100 patients as they progressed through a colon cleansing regimen. Each patient recorded the time of the first and last bowel movement following consumption of a laxative, as well as the total number of bowel movements associated with consumption of a particular laxative.

[1] = 10 mg taken 2 nights before colonoscopy (e.g. at suppertime)
[2] = 10 mg taken 3 nights before colonoscopy (e.g. at suppertime)

CC(=O)Oc1ccc(C(c2ccc(OC(C)=O)cc2)c2ccccn2)cc1 [Bisacodyl, bisacodyl]
Mean time to first BM ± standard deviation [1]: 8.6 ± 5.3 h
Mean time to last BM ± standard deviation [1]: 16.5 ± 5.3 h
Total number BM ± standard deviation [1]: 3.8 ± 2
Mean time to first BM ± standard deviation [2]: 8.9 ± 5.1 h
Mean time to last BM ± standard deviation [2]: 16.5 ± 5.1 h
Total number BM ± standard deviation [2]: 3.4 ± 2
